{"source": "patent US6242199A", "about": "“Assays for growth hormone secretagogue receptors” (Merck & Co., Inc., priority 1998, dated 2001)", "key": {"[1]": {"test_system": "human Type II GHSR", "assay": "Aequorin bioluminescence assay in Xenopus oocytes, human Type II GHSR", "format": "cell-based", "conditions": "human Type II-derived cRNA truncated in TM-6", "procedure": "(§1) Xenopus laevis oocytes were isolated and injected using standard methods previously described by Arena, et. al. 1991, Mol. Pharmacol. 40, 368-374, which is hereby incorporated by reference. Adult female Xenopus Laevis frogs (purchased from Xenopus One, Ann Arbor, Mich.) were anesthetized with 0.17% tricaine methanesulfonate and the ovaries were surgically removed and placed in a 60 mm culture dish (Falcon) containing OR-2 medium without calcium (82.5 mM NaCl, 2 mM KCl, 2.5 mM sodium pyruvate, 1 mM MgCl2, 100 μ/ml penicillin, 1 mg/ml streptomycin, 5 mM HEPES, pH=7.5; ND-96 from Specialty Media, NJ). Ovarian lobes were broken open, rinsed several times, and oocytes were released from their sacs by collagenase A digestion (Boehringer-Mannheim; 0.2% for 2-3 hours at 18° C.) in calcium-free OR-2. […]\n(§2) The ABA requires injection of library pool cRNA (25 ng/egg for pool sizes of 500 to 10,000) with aequorin cRNA (2 ng/egg) supplemented with the G-protein alpha subunit Gα11 (2 ng/egg). […] Polymerase chain reaction (PCR) was utilized to generate a DNA fragment corresponding to the open reading frame (ORF) of the aequorin cDNA with an optimized Kosak translational initiation sequence (Inouye, S. et. al., 1985, Proc. Natl. Acad. Sci. USA 82:3154-3158). […]"}, "[2]": {"test_system": "human Type I GHSR", "assay": "Aequorin bioluminescence assay in Xenopus oocytes, human Type I GHSR", "format": "cell-based", "conditions": "human Type I cRNA in oocytes; tested from 1 μM down", "procedure": "as §1, §2"}, "[3]": {"target": "T1, swine growth hormone secretagogue receptor (Type I, clone 7-3) (Sus scrofa, UniProt Q95254)", "T1 construct": "translation of the longest ORF encoded in clone 7-3 encodes a protein of 353 amino acids; expressed in transfected cells; host or cells: COS-7 (transient, Lipofectamine)", "T1 sequence (Q95254 14-366)": "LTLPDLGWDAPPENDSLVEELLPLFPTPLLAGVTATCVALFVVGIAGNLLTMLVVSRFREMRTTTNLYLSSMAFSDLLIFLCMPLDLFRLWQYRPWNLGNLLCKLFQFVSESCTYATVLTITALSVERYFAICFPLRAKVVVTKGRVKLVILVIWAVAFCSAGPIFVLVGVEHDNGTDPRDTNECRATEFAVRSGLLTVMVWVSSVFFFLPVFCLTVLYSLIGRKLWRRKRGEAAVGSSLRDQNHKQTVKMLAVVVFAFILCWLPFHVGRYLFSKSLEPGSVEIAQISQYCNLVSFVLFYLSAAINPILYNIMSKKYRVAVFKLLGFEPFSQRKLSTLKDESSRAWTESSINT", "assay": "[35S]-Compound A binding to COS-7 cell membranes transfected with swine GHSR clone 7-3", "procedure": "Mammalian cells (COS-7) were transfected with GHSR expression plasmids using Lipofectamine (GIBCO-BRL; Hawley-Nelson, 1993, Focus 15:73). Transfections were performed in 60 mm dishes on 80% confluent cells (approximately 4×10^5 cells) with 8 μg of Lipofectamine and 32 μg of GHSR plasmid DNA.\nBinding of [^35 S]-Compound A to swine pituitary membranes and crude membranes prepared from COS-7 cells transfected with GHSR expression plasmids was conducted. Crude cell membranes from COS-7 transfectants were prepared on ice, 48 hrs. post-transfection. Each 60 mm dish was washed twice with 3 ml of PBS, once with 1 ml homogenization buffer (50 mM Tris-HCl [pH 7.4], 5 mM MgCl2, 2.5 mM EDTA, 30 μg/ml bacitracin). 0.5 ml of homogenization buffer was added to each dish, cells were removed by scraping and then homogenized using a Polytron device (Brinkmann, Syosset, N.Y.; 3 bursts of 10 sec. at setting 4). The homogenate was then centrifuged for 20 min. at 11,000×g at 0° C. and the resulting crude membrane pellet (chiefly containing cell membranes and nuclei) was resuspended in homogenization buffer supplemented with 0.06% BSA (0.1 ml/60 mm dish) and kept on ice. Binding reactions were performed at 20° C. for 1 hr. in a total volume of 0.5 ml containing: 0.1 ml of membrane suspension, 10 μl of [^35 S]-Compound A (0.05 to 1 nM; specific activity approximately 900 Ci/mmol), 10 μl of competing drug and 380-390 μl of homogenization buffer. Bound radioligand was separated by rapid vacuum filtration (Brandel 48-well cell harvester) through GF/C filters pretreated for 1 hr. with 0.5% polyethylenimine. After application of the membrane suspension to the filter, the filters were washed 3 times with 3 ml each of ice cold 50 mM Tris-HCl [pH 7.4], 10 mM MgCl2, 2.5 mM EDTA and 0.015% Triton X-100, and the bound radioactivity on the filers was quantitated by scintillation counting. Specific binding (>90% of total) is defined as the difference between total binding and non-specific binding conducted in the presence of 50 nM unlabeled Compound A."}, "[4]": {"test_system": "swine growth hormone secretagogue receptor (GHSR)", "assay": "Aequorin bioluminescence assay in Xenopus oocytes injected with swine pituitary mRNA / cDNA library pool or clone cRNA", "format": "cell-based", "conditions": "1 μM", "procedure": "as §1, §2"}}, "data": [{"smiles": "CC(C)(N)C(=O)N[C@H](COCc1ccccc1)C(=O)N1CCC2(CC1)CN(S(C)(=O)=O)c1ccccc12", "note": "[Compound A, (N-[1(R)-[1,2-dihydro-1-methanesulfonlylspiro[3H-indole-3,4'-piperidin]-1'-yl)carbonyl]-2-(phenylmethyloxy)-ethyl]-2-amino-2-methyl-propanamide]", "values": [{"measurement": "response (in words)", "setting": "[1]", "value": "failed to give a response"}, {"measurement": "lowest Compound A concentration giving a response", "setting": "[2]", "value": 0.1, "unit": "nM"}, {"measurement": "inhibition at 0.05 µM", "setting": "[3]; 1 h, 50 nM unlabeled Compound A, read-out: specific binding displaced by unlabeled Compound A", "value": "> 90", "unit": "%"}, {"measurement": "saturable binding, Bmax", "setting": "[3]; clone 7-3 expressed transiently in COS-7 cells", "value": "~ 80 fmol/mg protein"}, {"measurement": "Kd", "setting": "[3]; clone 7-3 expressed transiently in COS-7 cells, read-out: high affinity binding, KD", "value": "~0.2", "unit": "nM"}, {"measurement": "specific binding of total", "setting": "[3]; nonspecific in presence of 50 nM unlabeled Compound A", "value": "> 90", "unit": "%"}, {"measurement": "bioluminescence response (in words)", "setting": "[4]; clones 7-3 and 28-18", "value": "positive bioluminescence response"}, {"measurement": "bioluminescent signal (in words)", "setting": "[4]; pool P541", "value": "positive bioluminescent signal"}]}]}
